{"source": "patent US20100000032A1", "about": "“PHENOXAZINE DYES” (Wetlands Incubator sprl, priority 2008, published 2010)", "key": {"[1]": {"test": "Water fastness of dyeing, ISO 105 E01", "assay_type": "physicochemical", "details": "for Water fastness, staining, acrylic / Water fastness, staining, cellulose acetate / Water fastness, staining, cotton / Water fastness, staining, nylon / Water fastness, staining, polyester / Water fastness, staining, wool: rating 1-5; for Water fastness, colour change: polyamide 6 knitted fabric, rating 5 = no colour change, 1 = high colour change", "protocol": "(§1) The fastness properties of the dyeings (textile and leather) were measured in accordance with ISO standards mentioned in Table 3. The results shown in Table 3 are the visual assessment described in ISO105-A02: 1993 textiles—test for colour fastness—part A02. On this scale, a rating of 5 means no colour change and a rating of 1 means a high colour change."}, "[2]": {"test": "Washing fastness of dyeing, ISO 105 C06: A2S", "assay_type": "physicochemical", "details": "for Washing fastness, staining, acrylic / Washing fastness, staining, cellulose acetate / Washing fastness, staining, cotton / Washing fastness, staining, nylon / Washing fastness, staining, polyester / Washing fastness, staining, wool: rating 1-5; for Washing fastness, colour change: polyamide 6 knitted fabric, rating 5 = no colour change, 1 = high colour change", "protocol": "as §1"}, "[3]": {"test": "Light fastness of dyeing, ISO 105 B02", "assay_type": "physicochemical", "details": "polyamide 6 knitted fabric, rating 5 = no colour change, 1 = high colour change", "protocol": "as §1"}, "[4]": {"system": "Caco-2 human intestinal cell line", "test": "In vitro toxicity, neutral red uptake", "assay_type": "cell-based", "details": "concentration at which 50% of the cells die, exposure at least 48 hr, highest concentration tested 0.5 g/L", "protocol": "(§2) The toxicity of compounds 17 and 18 were assessed with an in vitro method using the Caco-2 human intestinal cell line and the rainbow trout gonad (RTG-2) fish cell line. […] Subsequently, the cells were exposed to a series of concentrations of the test compounds, and two blanks, for at least 48 hr until 90% confluence was attained in the blanks. The highest concentration tested being 0.5 g/L. Thereafter, the exposure medium containing the test compounds was decanted and the cells in the microplate wells were gently washed with phosphate buffered saline solution. In order to measure the number of viable cells remaining after the exposure to the test compounds, the cells were exposed to a solution of neutral red in cell culture medium for 3 hr. […] Finally, the neutral red solution was decanted, the wells were again gently washed and then a solution of 1% acetic acid in 50% ethanol was added to the wells to dissolve the neutral red taken up by the viable cells. The absorbance of each well at 540 nm was measure with an appropriate microplate reader. The amount of neutral red present in each well is an indication of the number of viable cells and when compared to the values for the blanks can be used to calculate a percentage of cell death. An IC50 value, the concentration of the test compounds at which 50% of the cells die, can be determined if at least one of the tested compounds produces more than 50% cell death and at least one produces less; the results concerning compounds 17 and 18 are given in Table 4. If none of the tested concentrations produces more than 50% cell death, than an estimating can be made if at least some effect is noticeable. Comparing IC50 values among test compounds and with known toxicants allows for an assessment of their relative toxicities."}, "[5]": {"system": "rainbow trout gonad (RTG-2) fish cell line", "test": "In vitro toxicity, neutral red uptake", "assay_type": "cell-based", "details": "Oncorhynchus mykiss, concentration at which 50% of the cells die, exposure at least 48 hr, highest concentration tested 0.5 g/L, read-out: NRTG-2 cells IC50", "protocol": "as §2"}, "[6]": {"test": "Chlorinated water fastness of dyeing, ISO 105 E03", "assay_type": "physicochemical", "details": "polyamide 6 knitted fabric, rating 5 = no colour change, 1 = high colour change", "protocol": "as §1"}}}
{"molecule": "Nc1c(S(=O)(=O)O)c2nc3c(S(=O)(=O)O)cccc3oc-2cc1=O", "note": "[Compound 17, 2-Amino-3oxo-3H-phenoxazine-1,9-disulfonic acid]", "values": [{"measurement": "Water fastness, staining, acrylic", "setting": "[1]; 2% omf", "result": "4/5"}, {"measurement": "Water fastness, staining, cellulose acetate", "setting": "[1]; 2% omf", "result": "4/5"}, {"measurement": "Water fastness, staining, cotton", "setting": "[1]; 2% omf", "result": "4/5"}, {"measurement": "Water fastness, staining, nylon", "setting": "[1]; 2% omf", "result": "3/4"}, {"measurement": "Water fastness, staining, polyester", "setting": "[1]; 2% omf", "result": "4/5"}, {"measurement": "Water fastness, staining, wool", "setting": "[1]; 2% omf", "result": 4}, {"measurement": "Water fastness, colour change", "setting": "[1]; 2% omf", "result": 3}, {"measurement": "Washing fastness, staining, acrylic", "setting": "[2]; 2% omf", "result": "4/5"}, {"measurement": "Washing fastness, staining, cellulose acetate", "setting": "[2]; 2% omf", "result": "4/5"}, {"measurement": "Washing fastness, staining, cotton", "setting": "[2]; 2% omf", "result": "4/5"}, {"measurement": "Washing fastness, staining, nylon", "setting": "[2]; 2% omf", "result": "3/4"}, {"measurement": "Washing fastness, staining, polyester", "setting": "[2]; 2% omf", "result": "4/5"}, {"measurement": "Washing fastness, staining, wool", "setting": "[2]; 2% omf", "result": 4}, {"measurement": "Washing fastness, colour change", "setting": "[2]; 2% omf", "result": 3}, {"measurement": "Light fastness", "setting": "[3]; 2% omf", "result": ">3"}, {"measurement": "IC50", "setting": "[4]", "result": "> 550", "unit": "µg/mL"}, {"measurement": "IC50", "setting": "[5]", "result": "> 780", "unit": "µg/mL"}, {"measurement": "Chlorinated water fastness, colour change", "setting": "[6]; 2% omf", "result": 3}]}
{"molecule": "Nc1cc2nc3cc(S(=O)(=O)O)ccc3oc-2cc1=O", "note": "[Compound 18, 2-Amino-3oxo-3H-phenoxazine-8-sulfonic acid]", "values": [{"measurement": "Water fastness, staining, acrylic", "setting": "[1]; 1% omf", "result": "4/5"}, {"measurement": "Water fastness, staining, cellulose acetate", "setting": "[1]; 1% omf", "result": 4}, {"measurement": "Water fastness, staining, cotton", "setting": "[1]; 1% omf", "result": 4}, {"measurement": "Water fastness, staining, nylon", "setting": "[1]; 1% omf", "result": 3}, {"measurement": "Water fastness, staining, polyester", "setting": "[1]; 1% omf", "result": "4/5"}, {"measurement": "Water fastness, staining, wool", "setting": "[1]; 1% omf", "result": "2/3"}, {"measurement": "Water fastness, colour change", "setting": "[1]; 1% omf", "result": 4}, {"measurement": "Washing fastness, staining, acrylic", "setting": "[2]; 1% omf", "result": "4/5"}, {"measurement": "Washing fastness, staining, cellulose acetate", "setting": "[2]; 1% omf", "result": "4/5"}, {"measurement": "Washing fastness, staining, cotton", "setting": "[2]; 1% omf", "result": "4/5"}, {"measurement": "Washing fastness, staining, nylon", "setting": "[2]; 1% omf", "result": "4/5"}, {"measurement": "Washing fastness, staining, polyester", "setting": "[2]; 1% omf", "result": "4/5"}, {"measurement": "Washing fastness, staining, wool", "setting": "[2]; 1% omf", "result": "4/5"}, {"measurement": "Washing fastness, colour change", "setting": "[2]; 1% omf", "result": 4}, {"measurement": "Light fastness", "setting": "[3]; 1% omf", "result": 3}, {"measurement": "IC50", "setting": "[4]", "result": "> 686", "unit": "µg/mL"}, {"measurement": "Chlorinated water fastness, colour change", "setting": "[6]; 1% omf", "result": "3/4"}]}
